Assay results from PubChem BioAssay AID1963841 (Molecular Pharmacology Branch, DTP, NCI, 2024).

Tested on: 439559-082-T-J2-PDC spheroid viability
Test: Anticancer human tumor 439559-082-T-J2-PDC patient-derived colon adenocarcinoma cell line growth inhibition [POLQ]
Conditions: spheroids with HUVEC and MSC; for IC50: curve of first compound; for viability, T/C: stronger effect = lower value
Protocol: Multicellular complex tumor spheroid response to Polymerase (POL) inhibitors (novobiocin, ART-558, RP6685) in combination with a variety of drugs and investigational agents in selected tumor cell lines
The POL inhibitors (novobiocin, ART-558, and RP6685) were evaluated both individually and in combination with standard of care and investigational anticancer small molecules within a complex spheroid model of solid tumors. . Complex spheroids include a stromal component modeled by human endothelial cells (HUVEC) and fibroblasts modeled by human mesenchymal stem cells (MSCs). The concentration ranges selected for each drug and investigational agent were based upon clinically achievable concentrations if the clinical Cmax of the agent was known.
Compounds. The drugs and investigational agents: novobiocin (NSC847541), ART-558 (NSC835418), RP-6685 (NSC848927), peposertib (NSC802822), ceralasertib (NSC780249), elimusertib (NSC800525), camonsertib (NSC841442), AZD-1390 (NSC803789), olaparib (NSC753686), talazoparib (NSC767125), rucaparib (NSC756644), sotorasib (NSC818433), MRTX-1133 (NSC836407), SN-38 (NSC673596), topotecan (NSC609699), epotoside (NSC141540), doxorubicin (NSC123127), gemcitabine (NSC613327), 5-fluorouracil (NSC19893), paclitaxel (NSC125973), vemurafenib (NSC761431), MSA-2 (NSC828583), SN-011 (NSC837082), adavosertib (NSC754352), prexasertib (NSC758257), carboplatin (NSC241240) and oxaliplatin (NSC266046), were obtained from the National Cancer Institute (NCI) Developmental Therapeutics Program Chemical Repository (21). The FDA-approved anticancer drug set is available from the Developmental Therapeutics Program at https://dtp.cancer.gov/organization/dscb/obtaining/. […] The stock solutions were prepared in dimethyl sulfoxide (DMSO, Sigma-Aldrich, St. Louis, MO, cat. D2650), except for the platinum compounds which were prepared in saline (Quality Biological, Gaithersburg, MD, cat. 114-055-101), at 800-fold the tested concentration and stored at -70 degrees C prior to their use. All drugs and investigational agents were tested over a range starting from a high concentration at or near the clinical Cmax and decreasing in half-log increments. If the clinical Cmax for an agent had not been determined, the highest concentration tested was 10 microM, except for SN-38, which was tested at a high concentration of 1 microM.
Cell Culture. All cells were maintained in an incubator at 37 degrees C and 5% CO2 with 95% humidity. The PDC lines were cultured according to standard operating procedures established by the NCI PDMR (https://pdmr.cancer.gov). Table 3 of the manuscript, lists the cell lines along with the number of the three cell types plated to form the mct-spheroids and media for tumor cell growth. After thawing, all PDC lines, except 997537-175-T-J1-PDC and 415267-285-R-J2-PDC, were cultured in Matrigel-coated flasks prepared with a working solution of 1X Ham's F-12 nutrient mix, without supplementation (Thermo Fisher Scientific, cat. 11765054), 100 U/mL penicillin-streptomycin (Thermo Fisher Scientific, cat. 15140122), and 2.5% Matrigel (Corning Inc., Corning, NY, cat. 354248) for the first three passages. The two PDC lines 997537-175-T-J1-PDC and 415267-285-R-J2-PDC were cultured on uncoated flasks. The 857933-349-R-J2-PDC line was cultured in 6C/Colon 1B media containing advanced DMEM/F-12 (Thermo Fisher Scientific, cat. 12634028), 10 mM HEPES (Thermo Fisher Scientific, cat. 15630080), 1X GlutaMAX supplement (Thermo Fisher Scientific, cat. 35050061), 0.1 mg/mL primocin (InvivoGen, San Diego, CA, cat. ant-pm-2), 10% defined fetal bovine serum, heat inactivated (HyClone Laboratories Inc., Logan, UT, cat. SH30070.03HI), 50% L-WRN conditioned media (ATCC, cat. CRL-3276), 1.25 mM N-Acetyl-L-cysteine (Sigma-Aldrich, cat. A9165), 10 mM nicotinamide (Sigma-Aldrich, cat. N0636), 1X B-27 supplement (Thermo Fisher Scientific, cat. 17504044), 1X N-2 supplement (Thermo Fisher Scientific, cat. […]
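Further: spheroids exposed to compounds for seven days before readout.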
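Wherever viability, T/C is given: 100% = DMSO vehicle control viability.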

Structure (SMILES): CCc1cc2c(N3CCc4c(cc(Cn5ccnc5)cc4-c4cn(C)nc4C(F)(F)F)C3=O)cc(C)nc2c(OC)n1 + COC1C(OC(N)=O)C(O)C(Oc2ccc3c(O)c(NC(=O)c4ccc(O)c(CC=C(C)C)c4)c(=O)oc3c2C)OC1(C)C
- IC50 (second compound 0.0316 µM): > 10 µM
- IC50 (second compound 0.1 µM): > 10 µM
- IC50 (second compound 0.316 µM): > 10 µM
- IC50 (second compound 1 µM): > 10 µM
- IC50 (second compound 3.16 µM): > 10 µM
- IC50 (second compound 10 µM): > 10 µM
- viability, T/C (second compound 0.0316 µM, first compound 0.0316 µM): 104%
- viability, T/C (second compound 0.0316 µM, first compound 0.1 µM): 103%
- viability, T/C (second compound 0.0316 µM, first compound 0.316 µM): 98.8%
- viability, T/C (second compound 0.0316 µM, first compound 1 µM): 102%
- viability, T/C (second compound 0.0316 µM, first compound 3.16 µM): 95.4%
- viability, T/C (second compound 0.0316 µM, first compound 10 µM): 91.4%
- viability, T/C (second compound 0.1 µM, first compound 0.0316 µM): 102%
- viability, T/C (second compound 0.1 µM, first compound 0.1 µM): 101%
- viability, T/C (second compound 0.1 µM, first compound 0.316 µM): 91.7%
- viability, T/C (second compound 0.1 µM, first compound 1 µM): 95.2%
- viability, T/C (second compound 0.1 µM, first compound 3.16 µM): 92.7%
- viability, T/C (second compound 0.1 µM, first compound 10 µM): 94.3%
- viability, T/C (second compound 0.316 µM, first compound 0.0316 µM): 95.5%
- viability, T/C (second compound 0.316 µM, first compound 0.1 µM): 93.9%
- viability, T/C (second compound 0.316 µM, first compound 0.316 µM): 102%
- viability, T/C (second compound 0.316 µM, first compound 1 µM): 97.7%
- viability, T/C (second compound 0.316 µM, first compound 3.16 µM): 94.9%
- viability, T/C (second compound 0.316 µM, first compound 10 µM): 101%
- viability, T/C (second compound 1 µM, first compound 0.0316 µM): 99.4%
- viability, T/C (second compound 1 µM, first compound 0.1 µM): 105%
- viability, T/C (second compound 1 µM, first compound 0.316 µM): 103%
- viability, T/C (second compound 1 µM, first compound 1 µM): 95.7%
- viability, T/C (second compound 1 µM, first compound 3.16 µM): 94.3%
- viability, T/C (second compound 1 µM, first compound 10 µM): 93.3%
- viability, T/C (second compound 3.16 µM, first compound 0.0316 µM): 93.1%
- viability, T/C (second compound 3.16 µM, first compound 0.1 µM): 101%
- viability, T/C (second compound 3.16 µM, first compound 0.316 µM): 96.6%
- viability, T/C (second compound 3.16 µM, first compound 1 µM): 90.4%
- viability, T/C (second compound 3.16 µM, first compound 3.16 µM): 95.7%
- viability, T/C (second compound 3.16 µM, first compound 10 µM): 94.4%
- viability, T/C (second compound 10 µM, first compound 0.0316 µM): 105%
- viability, T/C (second compound 10 µM, first compound 0.1 µM): 94.4%
- viability, T/C (second compound 10 µM, first compound 0.316 µM): 93.6%
- viability, T/C (second compound 10 µM, first compound 1 µM): 91.2%
- viability, T/C (second compound 10 µM, first compound 3.16 µM): 95.7%
- viability, T/C (second compound 10 µM, first compound 10 µM): 83.8%
